Literature values as cited in US20090088424A1, “METHODS AND COMPOSITIONS FOR CONTROLLING THE BIOAVAILABILITY OF POORLY SOLUBLE DRUGS” (priority 2007, published 2009).
Converted amounts (≈) assume the structure as drawn.

Settings: pH 8.7, 25° C.

## O=C1Nc2ccc(Cl)cc2[C@@](C#CC2CC2)(C(F)(F)F)O1 [Efavirenz, (S)-6-chloro-4-(cyclopropylethynyl)-1,4-dihydro-4-(trifluoromethyl)-2H-3,1-benzoxazin-2-one]
  aqueous solubility: 9.2 µg/mL (≈ 29.1 µM)
